Experiments:
[1] = molecular target: T1, Oxytocin receptor (Homo sapiens, UniProt P30559); test: Antagonist activity at human oxytocin receptor expressed in CHO cells by beta lactamase assay; format: functional, cell-based
T1 sequence (P30559 whole entry): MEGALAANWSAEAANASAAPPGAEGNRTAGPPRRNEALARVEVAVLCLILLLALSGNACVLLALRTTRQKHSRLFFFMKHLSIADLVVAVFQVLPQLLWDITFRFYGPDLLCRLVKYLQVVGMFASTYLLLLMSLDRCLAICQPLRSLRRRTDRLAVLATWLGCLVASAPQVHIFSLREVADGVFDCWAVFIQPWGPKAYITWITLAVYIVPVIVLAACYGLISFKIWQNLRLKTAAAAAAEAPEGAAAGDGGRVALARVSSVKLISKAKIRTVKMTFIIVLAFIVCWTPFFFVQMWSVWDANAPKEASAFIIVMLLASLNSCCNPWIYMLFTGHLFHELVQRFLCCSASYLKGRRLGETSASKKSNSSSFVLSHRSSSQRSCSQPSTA

[2] = molecular target: Vasopressin V1a receptor (Homo sapiens, UniProt P37288); test: Antagonist activity at human vasopressin V1A receptor; format: functional
Chain of Vasopressin V1a receptor (P37288 whole entry): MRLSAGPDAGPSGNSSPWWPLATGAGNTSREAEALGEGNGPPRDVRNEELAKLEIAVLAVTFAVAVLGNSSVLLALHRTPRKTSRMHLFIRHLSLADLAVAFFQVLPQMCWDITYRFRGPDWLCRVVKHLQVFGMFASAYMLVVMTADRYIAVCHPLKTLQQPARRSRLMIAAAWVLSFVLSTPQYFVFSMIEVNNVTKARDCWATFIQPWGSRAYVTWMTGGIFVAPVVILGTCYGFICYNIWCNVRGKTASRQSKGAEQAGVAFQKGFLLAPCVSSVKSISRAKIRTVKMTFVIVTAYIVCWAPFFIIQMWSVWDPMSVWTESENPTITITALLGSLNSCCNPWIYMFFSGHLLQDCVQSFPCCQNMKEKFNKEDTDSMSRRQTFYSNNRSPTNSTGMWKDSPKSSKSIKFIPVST

[3] = molecular target: T2, Vasopressin V1b receptor (Homo sapiens) (UniProt P47901); test: Antagonist activity at human vasopressin V1B receptor at 10 uM; format: functional; set-up: scale not given: the % may be the effect or the level left
T2 sequence (whole entry): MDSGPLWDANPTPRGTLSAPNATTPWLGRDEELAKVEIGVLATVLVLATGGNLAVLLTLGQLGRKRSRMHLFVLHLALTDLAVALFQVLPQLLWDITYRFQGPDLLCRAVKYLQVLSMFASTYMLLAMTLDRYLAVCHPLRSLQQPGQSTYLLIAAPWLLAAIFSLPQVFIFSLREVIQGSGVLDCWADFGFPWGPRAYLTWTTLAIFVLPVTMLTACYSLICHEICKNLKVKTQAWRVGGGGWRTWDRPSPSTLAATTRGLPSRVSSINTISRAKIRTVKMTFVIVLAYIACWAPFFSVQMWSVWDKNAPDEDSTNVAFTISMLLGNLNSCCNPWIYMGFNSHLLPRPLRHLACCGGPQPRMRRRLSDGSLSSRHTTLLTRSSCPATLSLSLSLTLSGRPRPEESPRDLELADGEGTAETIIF

[4] = molecular target: Vasopressin V2 receptor (Homo sapiens) (UniProt P30518); test: Antagonist activity at human vasopressin V2 receptor at 10 uM; format: functional; set-up: scale not given: the % may be the effect or the level left
Chain of Vasopressin V2 receptor (Homo sapiens) (P30518 whole entry): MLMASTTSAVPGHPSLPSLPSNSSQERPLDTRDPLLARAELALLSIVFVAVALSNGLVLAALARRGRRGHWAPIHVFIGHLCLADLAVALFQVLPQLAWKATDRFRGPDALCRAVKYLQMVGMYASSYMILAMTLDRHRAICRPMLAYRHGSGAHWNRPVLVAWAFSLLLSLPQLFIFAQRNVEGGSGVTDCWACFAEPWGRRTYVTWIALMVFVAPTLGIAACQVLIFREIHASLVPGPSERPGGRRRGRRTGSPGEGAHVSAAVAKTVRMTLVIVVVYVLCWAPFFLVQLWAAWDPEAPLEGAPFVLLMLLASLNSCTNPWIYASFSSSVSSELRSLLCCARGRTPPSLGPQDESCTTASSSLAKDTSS

Row | SMILES | Ki [1] [nM] | Ki [2] [nM] | Activity [3] [%] | Activity [4] [%]
1 | COc1ccc(N(C)C(=O)N2CC(Oc3cc(F)cc(F)c3C)C2)cn1 | 237 | > 4200 |  | 
2 | CCN(C(=O)N1CC(Oc2ccc(F)cc2C)C1)c1ccc(OC)nc1 | 43 |  |  | 
3 | CCN(C(=O)N1CC(Oc2ccc(F)cc2Cl)C1)c1ccc(OC)nc1 | 48.4 |  |  | 
4 | COc1ccc(N(C)C(=O)N2CC(Oc3ccc(F)cc3C)C2)cn1 | 112 | 1300 |  | 
5 | COc1ccc(N(C)C(=O)N2CC(Oc3cccc(F)c3C)C2)cn1 | 159 | > 4200 |  | 
6 | COc1ccc(N(C)C(=O)N2CC(Oc3ccc(F)cc3Cl)C2)cn1 | 67.2 | 779 |  | 
7 | CCN(C(=O)N1CC(Oc2cccc(F)c2C)C1)c1ccc(OC)nc1 | 13.9 | > 4200 | < 10 | < 10
8 | COc1ccc(-n2c(C)nnc2N2CC(Oc3cc(F)cc(F)c3C)C2)cn1 | 41.4 | > 4200 |  | 
9 | CCN(C(=O)N1CC(Oc2cc(F)cc(F)c2C)C1)c1ccc(OC)nc1 | 36.7 |  |  | 
10 | COc1ccc(-n2c(C)nnc2N2CC(Oc3cccc(F)c3C)C2)cn1 | 19.7 | > 4200 |  | 
